{"source": "patent US7067508B2", "about": "“Diaminedithiol derivatives and radiorhenium or radiotechnetium complex thereof; a liver cancer-treating composition comprising the radiorhenium complex and lipiodol; and a kit for preparation of the liver cancer-treating composition” (Seoul National University Industry Foundation, priority 2001, dated 2006)", "experiment": "Biodistribution of 188Re-labelled compounds in lipiodol solution in mice after tail vein injection", "format": "in vivo", "conditions": "mice (ICR)", "method": "To the ^188Re-labelled reaction mixture prepared in the foregoing Examples 4 to 6, lipiodol (5 ml) was added, mixed well and the solution was centrifuged at 3000 rpm for 10 min. The supernatant was removed and 2 ml saline was added. After mixing well, the resulting solution was centrifuged again at 3000 rpm for 10 min and the supernatant was removed to recover a lower phase of lipiodol.\nMice (ICR) were administered with an injection of ^188Re-labelled compound in lipiodol solution which was prepared in the Example 7 via the tail vein. Radioactivity distributed in tissues and weight of each tissue were measured to calculate the percentage of radioactivity per gram of unit tissue relative to total radioactivity administered.\nAs radiation accumulation mechanism in the lung and the liver cancer are similar, it is convenient to detect the level of radiation accumulating in the lung of a mouse suffering from liver cancer. […] Therefore, it can be inferred that a radiorhenium complex of a diaminedithiol derivative having a long side chain is effective for treating liver cancer.", "data": [{"smiles": "CCCCCCCCCCCC[N+]12CC[N]3CC(C)(C)[S][188Re-]31(=[O])[S]C(C)(C)C2", "note": "(centres unmarked) [^188Re-DTDD]", "values": [{"measurement": "Biodistribution, radioactivity in Blood", "setting": "10 min post-injection", "result": "13.0 ± 0.6 percentage of radioactivity per gram"}, {"measurement": "Biodistribution, radioactivity in Fat", "setting": "10 min post-injection", "result": "5.5 ± 0.4 percentage of radioactivity per gram"}, {"measurement": "Biodistribution, radioactivity in Heart", "setting": "10 min post-injection", "result": "9.1 ± 2.3 percentage of radioactivity per gram"}, {"measurement": "Biodistribution, radioactivity in Kidney", "setting": "10 min post-injection", "result": "9.9 ± 0.7 percentage of radioactivity per gram"}, {"measurement": "Biodistribution, radioactivity in Liver", "setting": "10 min post-injection", "result": "14.9 ± 0.7 percentage of radioactivity per gram"}, {"measurement": "Biodistribution, radioactivity in Lung", "setting": "10 min post-injection", "result": "137.4 ± 13.1 percentage of radioactivity per gram"}, {"measurement": "Biodistribution, radioactivity in Muscle", "setting": "10 min post-injection", "result": "2.4 ± 0.1 percentage of radioactivity per gram"}, {"measurement": "Biodistribution, radioactivity in Small intestine", "setting": "10 min post-injection", "result": "4.8 ± 0.3 percentage of radioactivity per gram"}, {"measurement": "Biodistribution, radioactivity in Spleen", "setting": "10 min post-injection", "result": "5.6 ± 0.3 percentage of radioactivity per gram"}, {"measurement": "Biodistribution, radioactivity in Stomach", "setting": "10 min post-injection", "result": "18.3 ± 4.4 percentage of radioactivity per gram"}, {"measurement": "Biodistribution, radioactivity in Blood", "setting": "30 min post-injection", "result": "9.5 ± 1.1 percentage of radioactivity per gram"}, {"measurement": "Biodistribution, radioactivity in Fat", "setting": "30 min post-injection", "result": "4.4 ± 0.8 percentage of radioactivity per gram"}, {"measurement": "Biodistribution, radioactivity in Heart", "setting": "30 min post-injection", "result": "5.0 ± 0.9 percentage of radioactivity per gram"}, {"measurement": "Biodistribution, radioactivity in Kidney", "setting": "30 min post-injection", "result": "7.4 ± 0.5 percentage of radioactivity per gram"}, {"measurement": "Biodistribution, radioactivity in Liver", "setting": "30 min post-injection", "result": "14.6 ± 2.2 percentage of radioactivity per gram"}, {"measurement": "Biodistribution, radioactivity in Lung", "setting": "30 min post-injection", "result": "85.1 ± 7.1 percentage of radioactivity per gram"}, {"measurement": "Biodistribution, radioactivity in Muscle", "setting": "30 min post-injection", "result": "2.0 ± 0.2 percentage of radioactivity per gram"}, {"measurement": "Biodistribution, radioactivity in Small intestine", "setting": "30 min post-injection", "result": "8.3 ± 0.7 percentage of radioactivity per gram"}, {"measurement": "Biodistribution, radioactivity in Spleen", "setting": "30 min post-injection", "result": "4.8 ± 0.4 percentage of radioactivity per gram"}, {"measurement": "Biodistribution, radioactivity in Stomach", "setting": "30 min post-injection", "result": "36.0 ± 5.9 percentage of radioactivity per gram"}, {"measurement": "Biodistribution, radioactivity in Blood", "setting": "1 hr post-injection", "result": "7.0 ± 0.8 percentage of radioactivity per gram"}, {"measurement": "Biodistribution, radioactivity in Fat", "setting": "1 hr post-injection", "result": "4.1 ± 0.6 percentage of radioactivity per gram"}, {"measurement": "Biodistribution, radioactivity in Heart", "setting": "1 hr post-injection", "result": "5.5 ± 0.4 percentage of radioactivity per gram"}, {"measurement": "Biodistribution, radioactivity in Kidney", "setting": "1 hr post-injection", "result": "6.2 ± 0.7 percentage of radioactivity per gram"}, {"measurement": "Biodistribution, radioactivity in Liver", "setting": "1 hr post-injection", "result": "13.2 ± 2.8 percentage of radioactivity per gram"}, {"measurement": "Biodistribution, radioactivity in Lung", "setting": "1 hr post-injection", "result": "82.2 ± 15.1 percentage of radioactivity per gram"}, {"measurement": "Biodistribution, radioactivity in Muscle", "setting": "1 hr post-injection", "result": "1.5 ± 0.3 percentage of radioactivity per gram"}, {"measurement": "Biodistribution, radioactivity in Small intestine", "setting": "1 hr post-injection", "result": "9.7 ± 1.2 percentage of radioactivity per gram"}, {"measurement": "Biodistribution, radioactivity in Spleen", "setting": "1 hr post-injection", "result": "3.5 ± 0.5 percentage of radioactivity per gram"}, {"measurement": "Biodistribution, radioactivity in Stomach", "setting": "1 hr post-injection", "result": "49.2 ± 7.0 percentage of radioactivity per gram"}, {"measurement": "Biodistribution, radioactivity in Blood", "setting": "3 hr post-injection", "result": "5.1 ± 1.2 percentage of radioactivity per gram"}, {"measurement": "Biodistribution, radioactivity in Fat", "setting": "3 hr post-injection", "result": "2.4 ± 0.4 percentage of radioactivity per gram"}, {"measurement": "Biodistribution, radioactivity in Heart", "setting": "3 hr post-injection", "result": "2.7 ± 0.7 percentage of radioactivity per gram"}, {"measurement": "Biodistribution, radioactivity in Kidney", "setting": "3 hr post-injection", "result": "5.2 ± 0.7 percentage of radioactivity per gram"}, {"measurement": "Biodistribution, radioactivity in Liver", "setting": "3 hr post-injection", "result": "7.7 ± 0.6 percentage of radioactivity per gram"}, {"measurement": "Biodistribution, radioactivity in Lung", "setting": "3 hr post-injection", "result": "61.9 ± 10.3 percentage of radioactivity per gram"}, {"measurement": "Biodistribution, radioactivity in Muscle", "setting": "3 hr post-injection", "result": "1.0 ± 0.2 percentage of radioactivity per gram"}, {"measurement": "Biodistribution, radioactivity in Small intestine", "setting": "3 hr post-injection", "result": "11.6 ± 0.3 percentage of radioactivity per gram"}, {"measurement": "Biodistribution, radioactivity in Spleen", "setting": "3 hr post-injection", "result": "2.9 ± 0.6 percentage of radioactivity per gram"}, {"measurement": "Biodistribution, radioactivity in Stomach", "setting": "3 hr post-injection", "result": "37.7 ± 12.3 percentage of radioactivity per gram"}, {"measurement": "Biodistribution, radioactivity in Blood", "setting": "24 hr post-injection", "result": "0.6 ± 0.2 percentage of radioactivity per gram"}, {"measurement": "Biodistribution, radioactivity in Fat", "setting": "24 hr post-injection", "result": "0.6 ± 0.2 percentage of radioactivity per gram"}, {"measurement": "Biodistribution, radioactivity in Heart", "setting": "24 hr post-injection", "result": "1.5 ± 0.3 percentage of radioactivity per gram"}, {"measurement": "Biodistribution, radioactivity in Kidney", "setting": "24 hr post-injection", "result": "1.9 ± 0.3 percentage of radioactivity per gram"}, {"measurement": "Biodistribution, radioactivity in Liver", "setting": "24 hr post-injection", "result": "3.3 ± 1.1 percentage of radioactivity per gram"}, {"measurement": "Biodistribution, radioactivity in Lung", "setting": "24 hr post-injection", "result": "47.2 ± 9.2 percentage of radioactivity per gram"}, {"measurement": "Biodistribution, radioactivity in Muscle", "setting": "24 hr post-injection", "result": "0.3 ± 0.0 percentage of radioactivity per gram"}, {"measurement": "Biodistribution, radioactivity in Small intestine", "setting": "24 hr post-injection", "result": "9.2 ± 6.9 percentage of radioactivity per gram"}, {"measurement": "Biodistribution, radioactivity in Spleen", "setting": "24 hr post-injection", "result": "3.3 ± 1.0 percentage of radioactivity per gram"}, {"measurement": "Biodistribution, radioactivity in Stomach", "setting": "24 hr post-injection", "result": "5.4 ± 1.6 percentage of radioactivity per gram"}]}]}
